Measurements reported in patent US10760052B2, “Method of inhibiting tau phosphorylation” (priority 2012, dated 2020).
Where two headings read alike, the source gives them in different places.

Target: T1, mu opiate receptor (MOR) (Rattus norvegicus, UniProt P33535)
T1 construct: from tissue; host or cells: striatum (membrane preparation)
Format: biochemical
Details: for [35S]GTPγS binding, FLNA-Binding Compound as Agonist at 0.1 μM: 0.1 μM compound; for [35S]GTPγS binding, FLNA-Binding Compound as Agonist at 0.1 μM / [35S]GTPγS binding, FLNA-Binding Compound as Agonist at 1 μM: striatal membranes; for [35S]GTPγS binding, FLNA-Binding Compound as Agonist at 0.1 μM / [35S]GTPγS binding, FLNA-Binding Compound as Agonist at 1 μM + BFNA / [35S]GTPγS binding, FLNA-Binding Compound as Agonist at 1 μM: Series C-2; for [35S]GTPγS binding, FLNA-Binding Compound as Agonist at 1 μM + BFNA: 1 μM compound + 1 μM β-FNA (selective MOR antagonist); for [35S]GTPγS binding, FLNA-Binding Compound as Agonist at 1 μM: 1 μM compound
Method: To assess the mu opiate receptor (MOR) agonist activity of positive compounds from the FLNA screening, compounds were tested in a [^35S]GTPγS binding assay using striatal membranes. […] This assay measures a functional consequence of receptor occupancy at one of the earliest receptor-mediated events. The assay permits for traditional pharmacological parameters of potency, efficacy and antagonist affinity, with the advantage that agonist measures are not subjected to amplification or other modulation that may occur when analyzing parameters further downstream of the receptor.
Thus, striatal tissue was homogenized in 10 volumes of ice cold 25 mM HEPES buffer, pH 7.4, which contained 1 mM EGTA, 100 mM sucrose, 50 μg/ml leupeptin, 0.04 mM PMSF, 2 μg/ml soybean trypsin inhibitor and 0.2% 2-mercaptoethanol. The homogenates were centrifuged at 800×g for 5 minutes and the supernatants were centrifuged at 49,000×g for 20 minutes.
The resultant striatal membrane preparation (200 μg) was admixed and maintained (incubated) at 30° C. for 5 minutes in reaction buffer as above that additionally contained 1 mM MgCl2 and 0.5 nM [^35S]GTPγS (0.1 μCi/assay, PerkinElmer Life and Analytical Sciences) in a total volume of 250 μl and continued for 5 minutes in the absence or presence of 0.1-10 μM of an assayed compound of interest. The reaction was terminated by dilution with 750 μl of ice-cold reaction buffer that contained 20 mM MgCl2 and 1 mM EGTA and immediate centrifugation at 16,000×g for 5 minutes.
Normal rabbit serum (1 μl) was added to 1 ml of lysate and incubated at 25° C. for 30 minutes. Nonspecific immune complexes were removed by incubation with 25 μl of protein A/G-conjugated agarose beads at 25° C. for 30 minutes followed by centrifugation at 5,000×g at 4° C. for 5 minutes. The supernatant was divided and separately incubated at 25° C. for 30 minutes with antibodies raised against Gαo proteins (1:1,000 dilutions).
The immunocomplexes so formed were collected by incubation at 25° C. for 30 minutes with 40 μl of agarose-conjugated protein A/G beads and centrifugation at 5,000×g at 4° C. for 5 minutes. The pellet was washed and suspended in buffer containing 50 mM Tris-HCl, pH 8.0, and 1% NP-40. The radioactivity in the suspension was determined by liquid scintillation spectrometry.

[1] = [35S]GTPγS binding to Gαo in striatal membranes, compound 0.1 μM
[2] = [35S]GTPγS binding to Gαo in striatal membranes, compound 1 μM
[3] = [35S]GTPγS binding to Gαo in striatal membranes, compound 1 μM plus 1 μM β-funaltrexamine (MOR antagonist)

T1 sequence (P33535 whole entry): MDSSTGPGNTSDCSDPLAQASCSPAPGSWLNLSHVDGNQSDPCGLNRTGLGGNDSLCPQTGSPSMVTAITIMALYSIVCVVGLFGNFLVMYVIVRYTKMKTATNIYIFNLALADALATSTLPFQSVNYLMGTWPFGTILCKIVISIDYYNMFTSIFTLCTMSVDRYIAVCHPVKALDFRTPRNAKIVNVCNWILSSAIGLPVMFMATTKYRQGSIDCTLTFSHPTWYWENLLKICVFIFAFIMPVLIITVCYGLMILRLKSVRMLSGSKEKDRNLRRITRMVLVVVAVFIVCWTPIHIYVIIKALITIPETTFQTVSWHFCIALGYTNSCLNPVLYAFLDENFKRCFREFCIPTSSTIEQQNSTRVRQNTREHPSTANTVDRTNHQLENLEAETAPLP

Row | Compound | % DAMGO (0.1 μM) [%] | % DAMGO (1 μM) [%] | % DAMGO + BFNA [%] | [35S]GTPγS binding, FLNA-Binding Compound as Agonist at 0.1 μM [%] | [35S]GTPγS binding, FLNA-Binding Compound as Agonist at 1 μM + BFNA [%] | [35S]GTPγS binding, FLNA-Binding Compound as Agonist at 1 μM [%] | Concentration of FLNA-Binding Compound as Agonist 0.1 μM [1] [%] | Concentration of FLNA-Binding Compound as Agonist 1 μM [2] [%] | Concentration of FLNA-Binding Compound as Agonist 1 μM + BFNA [3] [%] | Concentration of FLNA-Binding Compound as Agonist 0.1 μM [%] | Concentration of FLNA-Binding Compound as Agonist 1 μM [%] | Concentration of FLNA-Binding Compound as Agonist 1 μM + BFNA [%]
1 | O=C1CN(C2CCc3ccccc3C2)C2(CCN(S(=O)(=O)c3ccccc3)CC2)N1 (stereo not drawn) [C0136M(P5)] | 93.4 | 95.6 | 153.6 | 176.8 | 74.5 | 237.3 |  |  |  |  |  | 
2 | O=C1CN(Cc2ccccc2)C2(CCN(C3CCCCC3)CC2)N1 [C0137M (P7)] | 95.6 | 78.1 | 115.1 | 180.8 | 55.8 | 193.8 |  |  |  |  |  | 
3 | COc1ccccc1CC(=O)CC1c2c(cc3c(c2OC)OCO3)CC[N+]1(C)C (stereo not drawn) [Compound 5009] | 66.9 | 83.2 | 181.5 |  |  |  | 128.5 | 270.4 | 87.5 |  |  | 
4 | COc1ccc(S(=O)(=O)N2CCC3(CC2)OCCN3S(=O)(=O)c2ccc(OC)cc2)cc1 [Compound 7866] | 79.3 | 94.8 | 129.5 |  |  |  | 152.3 | 308.2 | 62.4 |  |  | 
5 | CC1CCC(C(C)C)C(OCC(O)CN2CCCC2)C1 (stereo not drawn) [Compound A0001] | 63.1 | 78.9 | 83.8 |  |  |  | 94.3 | 181.7 | 22.2 |  |  | 
6 | CC1CCC(C(C)C)C(OCC(O)CN2CCSC2)C1 (stereo not drawn) [Compound A0002] | 104.1 | 86.6 | 24.5 |  |  |  | 155.6 | 199.4 | 6.5 |  |  | 
7 | CC1CCC(C(C)C)C(OCC(O)CN2CCSCC2)C1 (stereo not drawn) [Compound A0003] | 118.3 | 119.9 | 64.5 |  |  |  |  |  |  | 176.8 | 276.0 | 17.1
8 | CC1CCC(C(C)C)C(OCC(O)CN2CCOCC2)C1 (stereo not drawn) [Compound A0004] | 55.2 | 55.6 | 130.9 |  |  |  | 97.4 | 144.2 | 86.0 |  |  | 
9 | CC1CCC(C(C)C)C(OCC(O)CN2CCCCC2)C1 (stereo not drawn) [Compound A0005] | 105.0 | 89.6 | 45.1 |  |  |  | 179.7 | 239.2 | 23.5 |  |  | 
10 | CC1CCN(CC(O)COC2CC(C)CCC2C(C)C)CC1 (stereo not drawn) [Compound A0006] | 113.8 | 82.9 | 68.7 |  |  |  | 170.0 | 190.9 | 18.2 |  |  | 
11 | CC1CCC(C(C)C)C(OCC(O)CN2CCCCC2C)C1 (stereo not drawn) [Compound A0007] | 68.3 | 96.4 | 152.5 |  |  |  | 102.0 | 221.9 | 40.4 |  |  | 
12 | CC1CCC(C(C)C)C(OCC(O)CN2CC(C)CC(C)C2)C1 (stereo not drawn) [Compound A0008] | 109.6 | 102.1 | 505.3 |  |  |  | 163.8 | 235.0 | 133.9 |  |  | 
